For data set [1], the system named is HEK293. Nature of the data set: cells. It counts as functional, cell-based. The settings on record: Homo sapiens.
Data set [2] concerns HEK293. The data set is described as follows: cells. Conditions: Homo sapiens.
Data set [3] relates to HEK293. Nature of the data set: inhibition of NOD1-driven NF-kB reporter – cell-based, luminescence, uHTS, primary screen (AID 1578). It counts as functional. Conditions: Homo sapiens.
The target in data set [4] is T1, Nucleotide-binding oligomerization domain-containing protein 1 (Homo sapiens, UniProt Q9Y239).
T1 sequence (Q9Y239 whole entry): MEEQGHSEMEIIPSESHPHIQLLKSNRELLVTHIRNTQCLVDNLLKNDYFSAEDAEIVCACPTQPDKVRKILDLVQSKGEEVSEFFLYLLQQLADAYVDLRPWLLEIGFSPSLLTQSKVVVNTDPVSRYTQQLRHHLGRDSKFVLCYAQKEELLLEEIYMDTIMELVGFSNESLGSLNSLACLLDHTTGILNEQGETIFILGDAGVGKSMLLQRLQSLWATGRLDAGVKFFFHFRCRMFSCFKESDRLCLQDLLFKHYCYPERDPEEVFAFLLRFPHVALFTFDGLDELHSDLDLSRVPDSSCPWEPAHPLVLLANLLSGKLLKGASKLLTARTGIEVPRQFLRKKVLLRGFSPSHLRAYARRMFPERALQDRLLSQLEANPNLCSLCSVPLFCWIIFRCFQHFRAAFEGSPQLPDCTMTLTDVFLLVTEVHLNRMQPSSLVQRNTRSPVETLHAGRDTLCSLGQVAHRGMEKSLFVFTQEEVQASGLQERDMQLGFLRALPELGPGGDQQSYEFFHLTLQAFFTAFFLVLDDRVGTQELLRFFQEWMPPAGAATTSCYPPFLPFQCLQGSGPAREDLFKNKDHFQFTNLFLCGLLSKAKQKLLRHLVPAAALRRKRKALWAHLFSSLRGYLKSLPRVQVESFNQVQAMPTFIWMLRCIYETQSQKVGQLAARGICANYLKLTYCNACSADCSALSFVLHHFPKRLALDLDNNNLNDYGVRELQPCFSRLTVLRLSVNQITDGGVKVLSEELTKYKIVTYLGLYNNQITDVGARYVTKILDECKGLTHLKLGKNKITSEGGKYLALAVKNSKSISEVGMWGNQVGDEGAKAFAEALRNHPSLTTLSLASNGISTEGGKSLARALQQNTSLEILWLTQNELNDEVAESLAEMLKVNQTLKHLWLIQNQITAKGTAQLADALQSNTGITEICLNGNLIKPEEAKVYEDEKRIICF
Nature of the data set: blockers of NOD1 pathway activity – revised, SAR follow-up (AID 2333). It counts as functional.

For a further data set, the target named is Tumor necrosis factor (Homo sapiens, UniProt P01375). Nature of the data set: analog potency on TNFa NF-kB signaling – cell-based, revised, SAR follow-up (AID 2337). It counts as functional.
Tumor necrosis factor, sequence (P01375 whole entry): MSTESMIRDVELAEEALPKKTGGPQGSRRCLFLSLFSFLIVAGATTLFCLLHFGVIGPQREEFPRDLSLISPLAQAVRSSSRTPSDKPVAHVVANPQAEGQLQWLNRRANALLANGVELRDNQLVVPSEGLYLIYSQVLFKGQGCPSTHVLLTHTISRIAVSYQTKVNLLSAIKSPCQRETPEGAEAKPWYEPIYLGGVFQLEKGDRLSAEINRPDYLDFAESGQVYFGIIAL
Data set [5] concerns HEK293. The data set is described as follows: cells. It counts as functional, cell-based. Conditions: Homo sapiens. The source holds these as a separate data set.
For data set [6], the system named is HEK293. The data set is described as follows: NOD2 signaling inhibitors in MDP-stimulated cells, cell-based, uHTS, luminescence (AID 2001). It counts as functional. Conditions: Homo sapiens.
The nature of data set [7]: NIH3T3 cell viability loss – ATP luminescence, mouse fibroblasts, counter-screen, dose response (AID 2010).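 Further: cells exposed to compound for about 90 hours before reading.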 It counts as functional, cell-based.
In data set [8] the target is T2, COUP transcription factor 2 (Homo sapiens, UniProt P24468).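 Further: HEK293 cells transiently cotransfected with COUP-TFII expression vector and reporter; luciferase reporter luminescence driven by COUP-TFII from the pX2-168 reporter plasmid.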
T2 sequence (P24468 whole entry): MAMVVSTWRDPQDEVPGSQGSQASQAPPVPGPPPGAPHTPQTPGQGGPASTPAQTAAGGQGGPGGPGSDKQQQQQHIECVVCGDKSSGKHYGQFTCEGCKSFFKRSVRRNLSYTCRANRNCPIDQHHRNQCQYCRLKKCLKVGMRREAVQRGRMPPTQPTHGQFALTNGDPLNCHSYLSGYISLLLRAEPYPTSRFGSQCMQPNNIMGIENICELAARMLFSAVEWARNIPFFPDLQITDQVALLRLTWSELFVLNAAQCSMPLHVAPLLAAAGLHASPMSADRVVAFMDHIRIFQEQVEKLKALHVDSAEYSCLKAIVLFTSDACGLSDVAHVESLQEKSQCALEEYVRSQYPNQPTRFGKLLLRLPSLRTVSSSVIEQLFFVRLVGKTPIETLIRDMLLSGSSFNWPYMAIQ
The data set is described as follows: Luminescence-based cell-based high throughput dose response assay to identify inhibitors of COUP-TFII (NR2F2). It counts as functional.

The nature of data set [9]: Trypanosoma cruzi growth suppression in host cells – NIH3T3 host cells, beta-gal luminescence, confirmation (AID 2044).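 Further: intracellular parasites grown in NIH/3T3 mouse fibroblasts as host cells; luminescent beta-galactosidase reporter signal from transgenic T. cruzi replicating inside host cells; inhibitors lower the luminescence signal.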 Type of data set: functional, cell-based.
Data set [10] deals with T3, Short transient receptor potential channel 4 (Mus musculus, UniProt Q9QUQ5).
T3 sequence (Q9QUQ5 whole entry): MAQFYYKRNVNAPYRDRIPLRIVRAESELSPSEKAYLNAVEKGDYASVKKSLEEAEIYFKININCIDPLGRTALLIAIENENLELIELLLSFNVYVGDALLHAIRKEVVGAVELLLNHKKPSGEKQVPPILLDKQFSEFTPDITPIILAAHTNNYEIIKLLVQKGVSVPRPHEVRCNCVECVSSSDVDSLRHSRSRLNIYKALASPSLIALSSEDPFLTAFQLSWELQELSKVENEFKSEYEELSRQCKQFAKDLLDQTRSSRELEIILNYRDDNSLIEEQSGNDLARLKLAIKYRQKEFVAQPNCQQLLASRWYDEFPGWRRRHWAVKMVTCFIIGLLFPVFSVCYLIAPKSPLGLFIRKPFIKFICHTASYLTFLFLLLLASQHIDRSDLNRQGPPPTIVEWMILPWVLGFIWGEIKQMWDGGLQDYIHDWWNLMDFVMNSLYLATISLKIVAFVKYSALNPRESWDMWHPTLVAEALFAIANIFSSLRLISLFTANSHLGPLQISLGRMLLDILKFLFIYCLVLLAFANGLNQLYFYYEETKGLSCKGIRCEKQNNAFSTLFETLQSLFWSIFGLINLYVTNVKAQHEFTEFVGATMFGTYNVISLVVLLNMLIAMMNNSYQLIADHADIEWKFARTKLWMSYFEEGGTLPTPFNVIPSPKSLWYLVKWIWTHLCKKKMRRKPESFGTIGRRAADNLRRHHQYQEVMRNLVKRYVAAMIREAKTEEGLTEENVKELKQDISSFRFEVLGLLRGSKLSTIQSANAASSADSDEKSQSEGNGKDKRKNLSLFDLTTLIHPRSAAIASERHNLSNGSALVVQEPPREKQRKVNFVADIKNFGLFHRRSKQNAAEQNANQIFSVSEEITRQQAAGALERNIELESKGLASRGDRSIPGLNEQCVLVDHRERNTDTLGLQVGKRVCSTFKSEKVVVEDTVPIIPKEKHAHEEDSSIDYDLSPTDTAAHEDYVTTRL
Nature of the data set: block of DAMGO-driven TRPC4 calcium entry – cell-based, HEK293 TRPC4/mu-opioid, Fluo-4 calcium, dose response (AID 434942).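 Further: potency of inhibitors blocking the TRPC4 calcium response.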 Type of data set: functional.

The target of the next data set is Cytochrome P450 2D6 (Homo sapiens, UniProt P10635).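 Further: CYP2D6 member of a cytochrome P450 panel assay.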
Cytochrome P450 2D6, sequence (P10635 whole entry): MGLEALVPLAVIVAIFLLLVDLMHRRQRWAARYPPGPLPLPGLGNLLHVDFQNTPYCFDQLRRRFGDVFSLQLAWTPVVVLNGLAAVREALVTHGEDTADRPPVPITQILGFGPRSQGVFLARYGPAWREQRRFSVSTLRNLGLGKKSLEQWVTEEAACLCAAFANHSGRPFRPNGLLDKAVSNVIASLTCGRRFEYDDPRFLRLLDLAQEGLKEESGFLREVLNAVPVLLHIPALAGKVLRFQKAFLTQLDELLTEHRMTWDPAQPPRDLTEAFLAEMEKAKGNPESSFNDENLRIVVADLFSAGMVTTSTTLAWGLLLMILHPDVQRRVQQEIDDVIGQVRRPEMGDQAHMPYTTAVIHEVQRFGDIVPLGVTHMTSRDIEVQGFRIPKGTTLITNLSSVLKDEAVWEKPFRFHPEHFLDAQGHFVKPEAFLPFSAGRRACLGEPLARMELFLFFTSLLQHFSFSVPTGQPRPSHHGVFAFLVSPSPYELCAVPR
Data set [11] concerns Vero. The data set is described as follows: cells. Type of data set: functional, cell-based. The settings on record: Chlorocebus sabaeus.
Data set [12] relates to Vero. The data set is described as follows: cells. It counts as functional. Conditions: Chlorocebus sabaeus.
Another data set deals with Cytochrome P450 2C9 (Homo sapiens, UniProt P11712).
Cytochrome P450 2C9, sequence (P11712 whole entry): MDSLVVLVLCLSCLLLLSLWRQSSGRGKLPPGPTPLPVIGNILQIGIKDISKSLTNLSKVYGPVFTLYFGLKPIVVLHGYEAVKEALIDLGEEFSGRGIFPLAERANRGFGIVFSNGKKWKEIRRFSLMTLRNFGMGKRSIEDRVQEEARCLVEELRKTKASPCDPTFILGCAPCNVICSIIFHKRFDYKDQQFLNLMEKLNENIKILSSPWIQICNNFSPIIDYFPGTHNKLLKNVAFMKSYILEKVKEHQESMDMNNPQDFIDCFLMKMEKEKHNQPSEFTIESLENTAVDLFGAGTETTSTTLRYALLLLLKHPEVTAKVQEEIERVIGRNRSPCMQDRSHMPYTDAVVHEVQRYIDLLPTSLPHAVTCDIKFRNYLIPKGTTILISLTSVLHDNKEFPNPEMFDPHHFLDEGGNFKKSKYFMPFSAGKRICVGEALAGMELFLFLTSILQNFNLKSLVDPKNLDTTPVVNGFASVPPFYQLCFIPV
The next data set has as its target T4, Cytochrome P450 1A2 (Homo sapiens, UniProt P05177).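 Further: PubChem cytochrome P450 panel assay, CYP1A2 panel member.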
T4 sequence (P05177 whole entry): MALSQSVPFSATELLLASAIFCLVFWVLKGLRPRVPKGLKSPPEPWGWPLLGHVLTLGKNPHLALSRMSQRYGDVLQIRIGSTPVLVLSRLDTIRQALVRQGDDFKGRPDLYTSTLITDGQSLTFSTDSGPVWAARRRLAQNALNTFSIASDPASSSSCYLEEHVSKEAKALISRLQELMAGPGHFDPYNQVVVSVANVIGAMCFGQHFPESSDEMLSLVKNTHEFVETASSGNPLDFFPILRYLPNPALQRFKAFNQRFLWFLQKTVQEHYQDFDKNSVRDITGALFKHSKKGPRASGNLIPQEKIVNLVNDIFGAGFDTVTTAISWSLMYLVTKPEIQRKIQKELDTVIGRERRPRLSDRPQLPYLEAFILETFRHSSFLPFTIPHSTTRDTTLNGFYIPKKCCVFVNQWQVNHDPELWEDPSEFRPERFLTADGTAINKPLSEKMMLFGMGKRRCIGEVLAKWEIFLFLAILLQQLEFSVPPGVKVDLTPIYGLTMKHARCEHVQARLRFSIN

Data set [13] is described as follows: viability of uninfected HEp-2 cells – cell-based, HTS, cytotoxicity control for RSV inhibitor project, dose response (AID 2410). The settings on record: human respiratory syncytial virus. Type of data set: functional.
Data set [14] concerns the target SWI/SNF-related matrix-associated actin-dependent regulator of chromatin subfamily A member 2 (Homo sapiens, UniProt P51531). Nature of the data set: Luminescence-based cell-based high throughput dose response assay to identify activators of the function of SWI/SNF related, matrix associated, actin dependent regulator of chromatin, subfamily a, member 2 (SMARCA2, BRM). Type of data set: functional.

The next data set concerns the target T5, CAAX prenyl protease 2 (Homo sapiens, UniProt Q9Y256).
T5 sequence (Q9Y256 whole entry): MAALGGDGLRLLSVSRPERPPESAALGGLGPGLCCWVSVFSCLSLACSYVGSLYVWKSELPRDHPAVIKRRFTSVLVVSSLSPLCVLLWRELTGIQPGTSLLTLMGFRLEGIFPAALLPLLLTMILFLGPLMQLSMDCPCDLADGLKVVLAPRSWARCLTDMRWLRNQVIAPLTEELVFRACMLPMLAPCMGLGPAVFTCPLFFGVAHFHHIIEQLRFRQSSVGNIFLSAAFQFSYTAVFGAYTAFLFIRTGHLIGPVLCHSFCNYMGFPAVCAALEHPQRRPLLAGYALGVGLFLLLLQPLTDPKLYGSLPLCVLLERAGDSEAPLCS
Nature of the data set: inhibition of Ras-converting CAAX protease Rce1 – biochemical, yeast membranes, quenched-peptide fluorescence, cherry-pick, dose response (AID 588849).

Data set [15] can be described thus: Counterscreen for activators of the function of SWI/SNF related, matrix associated, actin dependent regulator of chromatin, subfamily a, member 2 (SMARCA2, BRM): Luminescence-based cell-based high throughput dose response assay to identify non-selective compounds using the VP16 reporter assay. Type of data set: functional.
Another data set addresses Trypsin (Sus scrofa, UniProt P00761). The data set is described as follows: trypsin protease activity blockade – biochemical, quenched peptide fluorescence, cherry-pick, selectivity assay for Rce1 protease inhibitor project, dose response (AID 488789).
The target of the next data set is T6, CAAX prenyl protease 1 (Saccharomyces cerevisiae S288c, UniProt P47154).
T6 sequence (P47154 whole entry): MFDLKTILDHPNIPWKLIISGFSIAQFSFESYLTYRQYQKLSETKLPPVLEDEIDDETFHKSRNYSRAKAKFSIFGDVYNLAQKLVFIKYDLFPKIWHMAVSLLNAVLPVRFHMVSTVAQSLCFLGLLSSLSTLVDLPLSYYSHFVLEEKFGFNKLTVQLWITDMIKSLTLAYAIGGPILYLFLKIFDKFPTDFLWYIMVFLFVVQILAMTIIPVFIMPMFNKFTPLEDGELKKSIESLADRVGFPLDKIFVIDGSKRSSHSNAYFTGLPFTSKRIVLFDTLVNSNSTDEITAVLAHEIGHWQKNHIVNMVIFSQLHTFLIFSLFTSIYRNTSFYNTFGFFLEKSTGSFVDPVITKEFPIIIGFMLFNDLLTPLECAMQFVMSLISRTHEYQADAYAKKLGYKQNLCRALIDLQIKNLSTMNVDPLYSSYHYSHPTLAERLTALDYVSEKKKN
The data set is described as follows: yeast CAAX protease Ste24 inhibition – biochemical, S. cerevisiae, plate reader, cherry-pick, dose response (AID 488815).

The source made the active and inactive calls.

SWI/SNF-related matrix-associated actin-dependent regulator of chromatin subfamily A member 2, sequence (P51531 whole entry): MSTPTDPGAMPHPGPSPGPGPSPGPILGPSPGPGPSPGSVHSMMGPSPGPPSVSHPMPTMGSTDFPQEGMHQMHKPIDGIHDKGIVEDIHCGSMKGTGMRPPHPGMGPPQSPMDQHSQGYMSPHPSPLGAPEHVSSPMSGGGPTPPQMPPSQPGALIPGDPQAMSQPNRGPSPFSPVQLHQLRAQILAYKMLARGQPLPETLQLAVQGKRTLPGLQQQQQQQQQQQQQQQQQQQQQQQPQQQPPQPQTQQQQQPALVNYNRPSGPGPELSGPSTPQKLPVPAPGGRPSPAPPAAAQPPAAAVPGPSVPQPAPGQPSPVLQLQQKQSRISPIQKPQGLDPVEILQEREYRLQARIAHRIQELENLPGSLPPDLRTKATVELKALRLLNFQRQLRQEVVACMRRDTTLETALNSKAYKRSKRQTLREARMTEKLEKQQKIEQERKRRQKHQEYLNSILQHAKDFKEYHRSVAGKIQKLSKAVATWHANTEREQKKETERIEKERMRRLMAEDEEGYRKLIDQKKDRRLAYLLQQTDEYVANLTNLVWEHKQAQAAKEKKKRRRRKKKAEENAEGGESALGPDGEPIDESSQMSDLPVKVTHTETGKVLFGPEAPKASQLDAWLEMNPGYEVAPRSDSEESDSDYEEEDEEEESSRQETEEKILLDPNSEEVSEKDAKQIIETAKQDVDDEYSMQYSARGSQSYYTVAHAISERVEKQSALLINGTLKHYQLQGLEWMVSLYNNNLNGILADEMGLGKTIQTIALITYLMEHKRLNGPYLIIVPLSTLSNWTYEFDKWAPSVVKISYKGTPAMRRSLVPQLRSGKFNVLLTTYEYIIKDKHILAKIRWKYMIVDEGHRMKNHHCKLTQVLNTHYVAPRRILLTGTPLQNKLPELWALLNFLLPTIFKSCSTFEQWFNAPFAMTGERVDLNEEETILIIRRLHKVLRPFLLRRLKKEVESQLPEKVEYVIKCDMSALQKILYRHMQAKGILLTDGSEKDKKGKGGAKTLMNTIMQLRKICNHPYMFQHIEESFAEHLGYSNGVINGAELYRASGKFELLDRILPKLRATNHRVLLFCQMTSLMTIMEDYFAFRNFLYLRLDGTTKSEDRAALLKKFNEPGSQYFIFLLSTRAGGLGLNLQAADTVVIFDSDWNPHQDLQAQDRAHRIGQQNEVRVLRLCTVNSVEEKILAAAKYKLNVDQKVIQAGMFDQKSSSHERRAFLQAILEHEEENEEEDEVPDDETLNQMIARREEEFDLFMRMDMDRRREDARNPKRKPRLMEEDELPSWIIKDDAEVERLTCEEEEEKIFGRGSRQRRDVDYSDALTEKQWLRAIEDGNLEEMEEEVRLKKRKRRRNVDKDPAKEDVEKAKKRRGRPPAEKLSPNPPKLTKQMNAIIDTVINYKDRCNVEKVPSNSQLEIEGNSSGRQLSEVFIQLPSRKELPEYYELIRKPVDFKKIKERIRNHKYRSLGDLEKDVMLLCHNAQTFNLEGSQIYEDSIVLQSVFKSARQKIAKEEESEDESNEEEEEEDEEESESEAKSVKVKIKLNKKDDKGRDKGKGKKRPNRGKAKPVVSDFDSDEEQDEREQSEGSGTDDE
Trypsin, sequence (P00761 whole entry): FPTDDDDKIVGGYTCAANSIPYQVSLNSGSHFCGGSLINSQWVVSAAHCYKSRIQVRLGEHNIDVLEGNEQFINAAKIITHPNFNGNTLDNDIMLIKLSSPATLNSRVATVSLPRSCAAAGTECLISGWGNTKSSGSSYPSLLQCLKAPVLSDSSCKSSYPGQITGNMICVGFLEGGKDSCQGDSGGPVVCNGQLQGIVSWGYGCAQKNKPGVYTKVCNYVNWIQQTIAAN

Regarding `Cc1oc(-c2cccc3ccccc23)nc1CN1CCN(c2ncnc3ccccc23)CC1`, the half-inhibitory concentration (IC50) is 6.63 µM (active) in the data set with HEK293 [1]; > 20 µM (inactive) in the data set on HEK293 [2]; > 20 µM (inactive) in data set [4]; > 20 µM (inactive) at Tumor necrosis factor; 4.08 µM (active) in the data set with HEK293 [5]; 3.28 µM (active) in the data set with HEK293 [6]. Also, the EC50 in the data set with HEK293 [3] is 7.79 µM (active).

For `N=c1c2c(n(Cc3ccc(Cl)cc3)c3c1CCC3)CCC2`, the IC50 in the data set with HEK293 [1] is > 20 µM (inactive); in the data set with HEK293 [5] it was 11.8 µM (active); with HEK293 [6] it was 15.4 µM (inactive); in data set [8], 9.25 µM (active). Moreover, the concentration giving a half-maximal response (EC50) in the data set on HEK293 [3] was 10.2 µM (active); in data set [7], > 60 µM (not active); in data set [9], 0.443 µM (active); in data set [10], 7.5 µM (active).

On to `COC(=O)C/C=C\[C@@H](C)[C@@H](/C=N\OC[C@@H](O)COCc1ccco1)OC`, for which the AC50 entry at Cytochrome P450 2D6 was “inconclusive”.

For the molecule `COc1cc(C(=O)/C=C/c2cccnc2)ccc1O`, the IC50 with Vero [11] is > 25 µM (active). For the same molecule, the CC50 in the data set with Vero [12] is 21.2 µM (active).

With `COc1ccc(-n2nnnc2/C=C\Nc2ccccc2C(=O)c2ccccc2)cc1`, the concentration at half-maximal activity (AC50) entry at Cytochrome P450 2D6 was “inconclusive”; at Cytochrome P450 2C9, “inconclusive”; on Cytochrome P450 1A2 it was 22.4 µM (inconclusive).

With `CC[C@H]1CN(C)[C@H]2Cc3c([nH]c4ccccc34)C(=O)C[C@H]1[C@H]2C(=O)OC`, the AC50 entry at Cytochrome P450 2D6 is “inconclusive”.

Regarding `NS(=O)(=O)c1ccc(N/N=C/c2cn(-c3ccccc3)nc2-c2cccs2)cc1`, the half-maximal cytotoxic concentration (CC50) in [13] was 12.2 µM (active); in the data set with Vero [12] it was 11.3 µM (active). Besides, the EC50 in data set [14] and in [15] was > 91.2 µM (inactive) throughout. Further, the values for the AC50 at CAAX prenyl protease 2, at Trypsin and at CAAX prenyl protease 1 were 16.7 µM (active), 7.03 µM (active) and 7.44 µM (active), respectively.

Values taken from ChEMBL document CHEMBL1201862, “PubChem BioAssay data set” (2004).
